Test results: article PMC9994763, “A Conformational Change in the N Terminus of SLC38A9 Signals mTORC1 Activation” (Structure (London, England : 1993), 2020)
Changes are numbered by the printed parent chain.

Tests used:
Assay type in all cases: biochemical
[1] = target: T1, drSLC38A9^97-549 (N-terminal deletion, without N-plug) (Danio rerio, UniProt Q08BA4, N227Q/N235Q/N252Q/N263Q); assay: [3H]leucine uptake in proteoliposomes, filtration; conditions: 0.5 uM labelled compound, pH 5.0 assay buffer, room temperature; with or without 200 uM arginine
T1 construct: gene slc38a9; residues 97-549 (N-plug deleted); N-terminal His8-thrombin tag removed; Sf-9; liposomes
T1 sequence (Q08BA4 97-549 N227Q/N235Q/N252Q/N263Q): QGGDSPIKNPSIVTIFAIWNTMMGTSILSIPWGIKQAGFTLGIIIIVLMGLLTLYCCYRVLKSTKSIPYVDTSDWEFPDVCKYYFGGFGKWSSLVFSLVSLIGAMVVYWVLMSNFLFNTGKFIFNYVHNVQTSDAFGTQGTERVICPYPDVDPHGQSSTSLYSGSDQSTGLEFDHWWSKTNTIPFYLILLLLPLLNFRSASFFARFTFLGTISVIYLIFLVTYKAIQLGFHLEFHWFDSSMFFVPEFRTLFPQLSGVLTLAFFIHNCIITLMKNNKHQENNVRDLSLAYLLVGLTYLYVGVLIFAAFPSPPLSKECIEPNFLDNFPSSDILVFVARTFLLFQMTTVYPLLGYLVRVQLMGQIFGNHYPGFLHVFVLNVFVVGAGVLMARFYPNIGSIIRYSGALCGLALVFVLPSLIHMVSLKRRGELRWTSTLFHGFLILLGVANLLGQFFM

[2] = target: T2, drSLC38A9 (drSLC38A9^71-549) (Danio rerio, UniProt Q08BA4, P79A/S80A/H81A/E82A/Y85A/N227Q/N235Q/N252Q/N263Q); assay: [3H]leucine uptake in proteoliposomes, filtration; conditions: 0.5 uM labelled compound, pH 5.0 assay buffer, room temperature; with or without 200 uM arginine
T2 construct: gene slc38a9; residues 71-549 (N-plug kept); N-terminal His8-thrombin tag removed; Sf-9; liposomes; the printed 5A DNA also starts at residue 71
T2 sequence (Q08BA4 71-549 P79A/S80A/H81A/E82A/Y85A/N227Q/N235Q/N252Q/N263Q): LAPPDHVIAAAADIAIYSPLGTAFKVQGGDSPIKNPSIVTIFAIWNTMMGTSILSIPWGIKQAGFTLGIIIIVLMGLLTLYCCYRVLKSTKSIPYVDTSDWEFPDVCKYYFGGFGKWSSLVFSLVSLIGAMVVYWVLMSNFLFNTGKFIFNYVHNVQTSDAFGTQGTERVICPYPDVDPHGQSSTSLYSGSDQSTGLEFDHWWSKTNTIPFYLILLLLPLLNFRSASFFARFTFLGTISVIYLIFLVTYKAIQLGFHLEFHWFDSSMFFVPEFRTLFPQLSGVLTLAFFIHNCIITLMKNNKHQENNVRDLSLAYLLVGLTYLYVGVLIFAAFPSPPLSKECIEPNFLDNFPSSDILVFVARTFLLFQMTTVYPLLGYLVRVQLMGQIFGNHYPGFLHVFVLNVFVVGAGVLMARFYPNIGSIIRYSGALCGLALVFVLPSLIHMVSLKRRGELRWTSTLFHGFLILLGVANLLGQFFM

[3] = target: T3, drSLC38A9 (drSLC38A9^71-549) (Danio rerio, UniProt Q08BA4, N227Q/N235Q/N252Q/N263Q); assay: [3H]arginine uptake in proteoliposomes, filtration, […] min; conditions: outside pH 7.4, inside pH 5.0, room temperature; 0.5 uM labelled compound
T3 construct: gene slc38a9; residues 71-549 (N-plug kept); N-terminal His8-thrombin tag removed; Sf-9; liposomes; the printed 5A DNA also starts at residue 71
T3 sequence (Q08BA4 71-549 N227Q/N235Q/N252Q/N263Q): T2 sequence (Q08BA4 71-549 P79A/S80A/H81A/E82A/Y85A/N227Q/N235Q/N252Q/N263Q) with A9P, A10S, A11H, A12E, A15Y

Row | Compound | [3H]leucine uptake in proteoliposomes, filtration [1] | [3H]leucine uptake in proteoliposomes, filtration [2] | [3H]arginine uptake in proteoliposomes, filtration, 5 min [3]
1 | CC(C)C[C@H](N)C(=O)O [leucine] | The mutant proteins show similar transport capacity for leucine regardless of whether arginine was added | The mutant proteins show similar transport capacity for leucine regardless of whether arginine was added | 
2 | N=C(N)NCCC[C@H](N)C(=O)O [arginine] |  |  | the construct studied structurally here and the wild-type drSLC38A9 transport arginine with similar rates
